Values after ≈ are worked out from the molar mass of the structure shown.

The target of data set [1] is T1, Free fatty acid receptor 1 (Homo sapiens, UniProt O14842). Put plainly: Agonist activity at GPR40 receptor. It counts as functional.
In data set [2] the target is T1, Free fatty acid receptor 1. Description: Agonist activity at GPR40 receptor expressed in CHO cells by reporter gene assay. The class given is functional, cell-based. On the technique in general: Reporter assays use an easily measured gene product as a stand-in for the process of interest.
The nature of data set [3]: Solubility at pH 7.4. The following applies: buffer. The class given is physicochemical.
A short description of data set [4]: Distribution coefficient, log D at pH 7.4. It counts as physicochemical. The following applies: octanol/water.

T1 sequence (O14842 whole entry): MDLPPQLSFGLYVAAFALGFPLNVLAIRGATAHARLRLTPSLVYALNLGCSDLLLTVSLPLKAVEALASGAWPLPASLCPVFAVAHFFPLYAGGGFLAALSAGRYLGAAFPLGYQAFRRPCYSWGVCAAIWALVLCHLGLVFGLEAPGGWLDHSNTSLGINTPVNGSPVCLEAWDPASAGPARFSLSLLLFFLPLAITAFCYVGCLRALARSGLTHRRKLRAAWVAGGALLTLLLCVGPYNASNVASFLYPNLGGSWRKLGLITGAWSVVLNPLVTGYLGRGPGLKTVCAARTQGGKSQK

As to `O=C(O)Cc1ccc(NCc2cccc(Oc3ccccc3)c2)cc1`, the response in data set [1] was half-maximal at 3.98 µM (EC50). Further, the %max in data set [2] worked out at 32%. Turning to `O=C(O)CCc1ccc(NCc2ncc[nH]2)cc1`, the %max in data set [2] was determined as 4%.

`COc1ccc(CNc2ccc(CCC(=O)O)cc2)cc1`: in data set [1], the EC50 – broadly, the midpoint of the concentration-response curve – was 1.26 µM. Also, in data set [2], the %max is 159%. In data set [1], `O=C(O)C1CC1c1ccc(NCc2ccc(-c3ccccc3)cc2)cc1` (stereo unspecified) showed an EC50 of 0.0398 µM. Also, in data set [2], the %max is 80%. `O=C(O)CCc1ccc(NCc2ccccc2)cc1` had an EC50 in data set [1] of 7.94 µM. This compound returned a %max in data set [2] of 144%.

Take `O=C(O)C1CC1c1ccc(NCc2cccc(Oc3ccccc3)c2)cc1` (stereo unspecified): the EC50 in data set [1] was 0.0501 µM. In data set [2], this compound showed a %max of 74%.

In data set [1], `O=C(O)CCc1cccc(NCc2cccc(Oc3ccccc3)c2)c1` gave an EC50 of 0.398 µM. For the same compound, the %max in data set [2] worked out at 148%. The matching figures for `O=C(O)CCc1ccc(NCc2cccc(Br)c2)cc1`: 0.794 µM and 120%.

With `O=C(O)CCc1ccc(NCc2ccc(Cl)cc2)cc1`, the response in data set [1] was half-maximal at 1 µM (EC50). Also, in data set [3], the concentration in solution (solubility) was 830 µg/mL (≈ 2860 µM). The logD – broadly, the decadic logarithm of the distribution of all forms, ionised or not, between an organic phase and buffer at a given pH – in data set [4] was 0.98. This compound returned a %max in data set [2] of 111%. Compound `O=C(O)CCc1ccc(NCc2cccc(F)c2)cc1` gave an EC50 in data set [1] of 5.01 µM. In addition, in data set [2], the %max was 120%. For `O=C(O)CCc1ccc(NCc2ccc3c(c2)OCO3)cc1`, the %max in data set [2] turned out to be 141%. As for `O=C(O)CCCc1ccc(NCc2cccc(Oc3ccccc3)c2)cc1`, the EC50 in data set [1] was 3.16 µM. In addition, in data set [2], the %max is 74%. With `N#Cc1ccc(CNc2ccc(CCC(=O)O)cc2)cc1`, the %max in data set [2] worked out at 49%.

Compound `O=C(O)Cc1ccc(NCc2ccc(-c3ccccc3)cc2)cc1` had an EC50 in data set [1] of 12.3 µM. In data set [2], this compound had a %max of 69%.

`O=C(O)CCc1ccc(NCc2cc(C(F)(F)F)cnc2Cl)cc1` showed an EC50 in data set [1] of 5.01 µM. In addition, the %max in data set [2] turned out to be 112%. The matching figures for `O=C(O)CCCc1ccc(NCc2ccc(-c3ccccc3)cc2)cc1`: 1.58 µM and 62%. On the same counts, the results for `CC(C(=O)O)c1ccc(NCc2cccc(Oc3ccccc3)c2)cc1` (stereo unspecified) are 16.6 µM and 34%.

On to `O=C(O)CCc1ccc(NCc2ccc3ccccc3c2)cc1`, for which it took 0.794 µM to reach a half-maximal effect in data set [1] (EC50). The same compound gave a %max in data set [2] of 123%.

`Cc1ccc(CNc2ccc(CCC(=O)O)cc2)cc1`: the EC50 in data set [1] was 3.98 µM. Further, the %max in data set [2] was 152%. Turning to `O=C(O)CCc1ccc(NCc2ccc(C(=O)O)cc2)cc1`, the %max in data set [2] came out at 9%. In turn, `O=C(O)CCc1cccc(NCc2ccc(-c3ccccc3)cc2)c1` had an EC50 in data set [1] of 0.501 µM. For the same compound, the %max in data set [2] was determined as 160%. On the same counts, the results for `O=C(O)CCc1ccc(NCc2ccc(Oc3ccccc3)cc2)cc1` are 0.195 µM and 139%.

`O=C(O)CCc1ccc(NCc2ccc(C(F)(F)F)cc2)cc1` displayed a %max in data set [2] of 133%.

In data set [2], `CS(=O)(=O)Nc1cccc(CNc2ccc(CCC(=O)O)cc2)c1` registered a %max of 9%. The same measure, in the same setting: to `O=C(O)CCc1ccc(NCc2ccc(O)cc2)cc1` belongs 37%.

Regarding `CC(C(=O)O)c1ccc(NCc2ccc(-c3ccccc3)cc2)cc1` (stereo unspecified), the %max in data set [2] was found to be 21%.

`CN(C)Cc1ccc(CNc2ccc(CCC(=O)O)cc2)cc1` returned a %max in data set [2] of 12%. The same measure, in the same setting: in the case of `O=C(O)CCc1ccc(NCc2cccnc2)cc1` it was 4%; in that of `NC(=O)c1cccc(CNc2ccc(CCC(=O)O)cc2)c1`, 18%. On to `O=C(O)CCc1ccc(NCc2ccc(Cl)c(Cl)c2)cc1`, for which, in data set [1], it took 0.251 µM to reach a half-maximal effect (EC50). The compound also yielded a %max in data set [2] of 117%. Consider `O=C(O)CCc1ccc(NCc2ccc(Cl)s2)cc1`, for which, in data set [2], the %max is 143%. In data set [1], `O=C(O)CCc1ccc(NCc2ccccc2Cl)cc1` showed an EC50 of 3.98 µM. Moreover, the %max in data set [2] came out at 122%. On the same counts, the results for `O=C(O)CCc1ccc(NCc2ccc(-c3ccccc3)cc2)cc1` are 0.251 µM and 111%.

The record behind these values is ChEMBL document CHEMBL1146379, “Solid phase synthesis and SAR of small molecule agonists for the GPR40 receptor” (Bioorg Med Chem Lett, 2007).
